The results in this text go back to article PMC10526209, “Systematic Exploration of Functional Group Relevance for Anti-Leishmanial Activity of Anisomycin” (Biomedicines, 2023).

Each structure is given as a SMILES string.

Series [1] has as its system L. tarentolae lysate. Kind of series: Cell-free transcription-translation inhibition in L. tarentolae lysate. It counts as biochemical. The settings on record: inhibition of translation in active cell lysate, EGFP reporter, 120 min at 26 °C. How it is done:
(§1) Cytosolic ribosome susceptibility and selectivity were assessed through three different cell-free transcription-translation assays: (1) An extract of E. coli (S30, Promega, Madison, WI, USA), (2) in rabbit reticulocytes (Promega), and (3) in L. tarentolae lysate (Jena Bioscience, Jena, Germany). Three plasmids, compatible with each extract system, were used in this study: pBESTlucTM (Promega) for the prokaryotic translation assay, Luciferase T7 DNA (Promega) for the reticulocytes, and pLEXSY-invitro2-EGFP (Jena Bioscience) for Leishmania. Firefly luciferase was used as a reporter gene for the bacterial and reticulocyte systems, and EGFP for Leishmania. […] Assays were performed in white polystyrene 96-well flat-bottom plates (Nunc, Roskilde, Denmark) for luciferase and black polystyrene 384-well flat-bottom plates (Greiner, Kremsmunster, Austria) for EGFP. Incubation times were 60 min at 37 °C, 90 min at 30 °C, and 120 min at 26 °C for the bacterial, reticulocyte, and Leishmania systems, respectively. Reactions were stopped by quick snap cooling followed by a 5 min incubation on ice. Luciferase activity was measured for each well following the addition of 50 μL of Luciferase Assay reagent (Promega, Madison, WI, USA) with an automatic reagent injector (Tecan, Mannedorf, Switzerland) by recording the chemical-luminescence signal. EGFP fluorescence (λex = 488 nm; λem = 507 nm) was recorded on a Tecan Infinite R®F200 microplate reader (Tecan). Extracts lacking the circular DNA template were used as a negative control to calculate the fluorescence/chemical luminescence background. Reaction mixtures without compounds were used as positive controls and were regarded as 100% translation. Paromomycin was used as a control reagent in all assays. At least six different concentrations were used to plot each translation inhibition curve; experiments were performed in three independent repeats in duplicate. Half maximal inhibition concentrations (IC50) values were calculated from the concentration-response fitting curves using GraFit7.0.3 software.

For series [2], the system named is extract of E. coli (S30). Kind of series: Cell-free transcription-translation inhibition in E. coli S30 extract. It is filed as biochemical. How it is done:
as §1

Series [3] relates to rabbit reticulocytes (RR). Kind of series: Cell-free transcription-translation inhibition in rabbit reticulocytes. It is filed as biochemical. Conditions: inhibition of translation in rabbit reticulocyte lysate, luciferase reporter, 90 min at 30 °C. How it is done:
as §1

In series [4] the test system is Leishmania infantum (MHOM/MA/67/ITMAP-263) wild-type strain. Briefly: Anti-leishmanial activity on promastigotes, L. infantum WT. The settings on record: Leishmania infantum, 72 h, 25 °C, unit nM, read-out: IC50 Ldi WT. It counts as cell-based. How it is done:
(§2) The L. infantum (MHOM/MA/67/ITMAP-263) wild-type strain (WT), as well as the resistant mutants Sb2000.1, AmB1000.1, and MF200.5 [29, 30, 31, 32, 33], which are respectively resistant to antimony (Sb^III), amphotericin B (AmB), and miltefosine (MF), were grown in M199 medium at 25 °C supplemented with 10% fetal bovine serum, 5 μg/mL of haemin at pH 7.0, 2000 μM Sb (Potassium antimonyl tartrate trihydrate, Sigma-Aldrich, Saint Louis, MO, USA), 200 μM of MF (Miltefosine, Cayman Chem, Ann Arbor, MI, USA) or 1 μM AmB (Amphotericin B solution, Sigma-Aldrich, Saint Louis, MO, USA). Leishmanicidal values were determined in Leishmania promastigotes by monitoring the replication of parasites after 72 h of incubation at 25 °C in the presence of increasing concentrations of the different compounds by measuring A600 using a Cytation 5 machine (BioTek-Agilent, Santa Clara, CA 9, USA). EC50 values were calculated based on dose–response curves analyzed by non-linear regression with GraphPad Prism 10.0 software (GraphPad Software, La Jolla, CA, USA). An average of at least three independent biological replicates were performed for each determination.

Series [5] relates to Leishmania major Friedlin. Briefly: Anti-leishmanial activity on promastigotes, L. major Friedlin. It counts as cell-based. The settings on record: Leishmania major, 72 h, 25 °C, unit nM, read-out: IC50 LmF WT.
The test system of series [6] is Leishmania infantum (MHOM/MA/67/ITMAP-263) resistant to 2 mM trivalent (and pentavalent) antimonials. Briefly: Anti-leishmanial activity on promastigotes, antimony-resistant L. infantum. It is filed as cell-based. The settings on record: Leishmania infantum, 72 h, read-out: IC50 Ldi Sb-Res. How it is done: as §2
Series [7] relates to Leishmania infantum (MHOM/MA/67/ITMAP-263) resistant to 200 µM miltefosine. Briefly: Anti-leishmanial activity on promastigotes, miltefosine-resistant L. infantum. It counts as cell-based. Conditions: Leishmania infantum, 72 h, read-out: IC50 Ldi MF-Res. How it is done: as §2
Series [8] concerns Leishmania infantum (MHOM/MA/67/ITMAP-263) resistant to 1 µM amphotericin B. Kind of series: Anti-leishmanial activity on promastigotes, amphotericin B-resistant L. infantum. It is filed as cell-based. Conditions: Leishmania infantum, 72 h, read-out: IC50 Ldi AmB-Res. How it is done: as §2
Series [9] relates to L. infantum WT amastigotes in BMDM. Kind of series: Drug susceptibility of intracellular amastigotes in infected BMDM, L. infantum. It counts as cell-based. Conditions: Leishmania infantum; infected BMDM macrophages, 48 h; read-out: EC50 against amastigotes of L. infantum. How it is done:
(§3) The effect of isopropyl ether 22a on the amastigote intracellular form of Leishmania was determined by the measurement of EC50 values in cells, as previously described. Briefly, 2.5 × 10^5 bone-marrow-derived macrophages (BMDMs) were plated into the wells of 12-well chamber slides (Ibidi) with complete DMEM medium. A culture of L. infantum or L. major WT promastigotes in stationary phase in a ratio of 1:5 BMDM to parasites was used to infect cells. Infection was carried out for 3 h at 37 °C in DMEM medium with 5% CO2 without drug. After 24 h, increasing concentrations of ether 22a were added to the medium containing the infected macrophages. After 48 h, the slides were fixed in methanol and stained with Diff-Quick solution to facilitate parasite visualization. The number of infecting amastigotes per 100 cells was determined by examining 300 macrophages per triplicate assay and normalized to the untreated control. EC50 values in the amastigote form were calculated based on dose–response curves that were analyzed by non-linear regression using the GraphPad Prism 9.0 software. An average of three independent biological replicates was used to perform the analyses.

In series [10] the test system is L. major WT amastigotes in BMDM. Briefly: Drug susceptibility of intracellular amastigotes in infected BMDM, L. major. The settings on record: Leishmania major; infected BMDM macrophages, 48 h; read-out: EC50 against amastigotes of L. major. It counts as cell-based. How it is done:
as §3

Series [11] relates to host macrophage (BMDM). Briefly: Host macrophage toxicity, MTT survival assay. It is filed as cell-based. Background: Tetrazolium assays rely on reduction of a dye to a coloured formazan, in cell work by metabolically active cells.

Regarding `CC(=O)O[C@@H]1[C@@H](O)CN[C@@H]1Cc1ccc(OC(C)C)cc1` [Analog 22a, (2R,3S,4S)-4-hydroxy-2-(4-iso-propoxybenzyl)-pyrrolidin-3-yl acetate], the IC50 was 1.13 ± 0.12 µM in [1]; over 200 µM in [2] (inhibition of translation in active cell lysate, luciferase reporter, 60 min at 37 °C); 0.9 ± 0.3 µM in [3]; 122 ± 5.62 nM in series [4]; 180 ± 4.69 nM in series [5]; 129 ± 3.16 nM in series [6]. Besides, the IC50 in series [7] came to 133 ± 7.8 nM; in series [8], 119 ± 14.1 nM. For the same compound, in [2] (translation assay), the “effect on E. coli (in words)” value is “no effect”. The figures for the EC50 in series [9] and in series [10] were 33.3 nM and 53.7 nM, respectively. The “fold greater selectivity against the different amastigotes relative to host macrophage toxicity” value in series [11] (MTT survival assay) is listed as 5–10 fold. Besides, the “host cell toxicity (in words)” value in series [11] (host BMDM cells) is listed as “without host cell toxicity”.

Broadly, the IC50 is the concentration at which inhibition is half-maximal. By EC50 is commonly meant the concentration that produces a half-maximal response.
